Assays:
BZω3 receptor = biological target: T1, BZω3 receptor (Rattus norvegicus, UniProt P16257); test: BZω3 (peripheral) benzodiazepine receptor binding assay, [3H] 4'-chlorodiazepam (Ro 5-4864); conditions: rat kidney membrane, [3H] Ro 5-4864 0.5 nM, 150 minutes at 0° C.; read-out: ω3 IC50
T1 construct: from tissue; host or cells: rat (Wistar) kidney membrane fraction
Procedure: Experiment 1: Central (ω1,ω2) and Peripheral (ω3) Benzodiazepine Receptor Binding Assays
BZω1 and BZω2 receptor binding assays and the preparation of receptor membrane fractions therefor were carried out according to the method of Stephens, D. N. et al. [cf., J. Pharmacol. Exp. Ther., 253, 334-343 (1990)], and BZω3 receptor binding assay and the preparation of receptor membrane fraction therefor were done according to the method of Schoemaker, H. [cf, J. Pharmacol. Exp. Ther., 225, 61-69 (1983)] each with slight modification.
Receptor membrane fractions for ω1, ω2 and ω3 were prepared from the cerebellum (ω1), spinal cord (ω2) or kidney (ω3) in 7-8 week old male rats of Wistar strain, respectively, by the procedure described below.
After the cerebellum or spinal cord was homogenized with 20 volumes of ice-cold 50 mM Tris-citrate buffer (pH 7.1), the homogenate was centrifuged for 15 minutes at 40,000 g. The pellet obtained was washed 4 times by the same procedure, and frozen and stored for 24 hours at −60° C. The resulting pellet, after being thawed, washed with the buffer and centrifuged, was suspended in the buffer I for the binding assay (50 mM Tris-HCl buffer containing 120 mM NaCl, 5 mM KCl, 2 mM CaCl2 and 1 mM MgCl2; pH 7.4) and the suspension thus obtained (containing 1 g wet tissue/40 ml) was used for the BZω1 and BZω2receptor binding assays. On the other hand, the kidney was homogenized with 20 volumes of the ice-cold buffer II for the binding assay (50 mM Na-K phosphate buffer containing 100 mM NaCl; pH 7.4), and the mixture was filtered through 4 sheets of gauze, and centrifuged for 20 minutes at 40,000 g. The pellet obtained was suspended in the buffer II and the suspension (containing 1 g wet tissue/100 ml) was used for the binding assay as BZω3 receptor membrane source.
[^3H] Flumazenil (Ro 15-1788) (final concentration: 0.3 nM for ω1, and 1 nM for ω2) and flunitrazepam (final concentration: 10 μM) were used for the BZω1 or BZω2 receptor binding assays as the isotope-labeled and unlabeled ligands, respectively. For the BZω3 receptor binding assay, [^3H] 4′-chlorodiazepam (7-chloro-1,3-dihydro-1-methyl-5-(4-chlorophenyl)-2H-1,4-diazepin-2-one) (Ro 5-4864) (final concentration: 0.5 nM) and diazepam (final concentration: 100 μM) were used as the isotope-labeled and unlabeled ligands, respectively. Incubation was performed for 30 minutes at 37° C. in the BZω1 or BZω2 receptor binding assays, and for 150 minutes at 0° C. in the BZω3 receptor binding assay. The BZω1 or BZω2 receptor binding assays were carried out in the presence of bicuculline (final concentration: 100 μM).
The binding assay was performed by the following procedure. After adding each test compound at certain known concentrations, a [^3H] ligand, and the buffer I or II to each test tube, each assay was started by addition of membrane preparation (total volume of 1 ml). After incubation, the assay was terminated by filtration with suction through a Whatman GF/B glass fiber filter using a cell harvester (Brandel, USA). The filters were rapidly washed 3 times with 5 ml of ice-cold 50 mM Tris-HCl buffer (pH 7.7) for ω1 and ω2, or the buffer II for ω3, and transferred to scintillation vials containing 10 ml liquid scintillation cocktail (ACS-II, Amersham, USA). After being allowed to stand for a specific period, retained radioactivity was counted by a liquid scintillation spectrometer. Specific binding of [^3H] ligands was calculated as the difference between amounts of radioactivity bound in the presence and absence of excess unlabeled ligands. The concentration of the test compounds causing 50% inhibition of specific binding of the [3H] ligand (IC50) was determined by probit analysis.

[1] = tested on: mice (stay in light compartment); test: Light and dark box test (anti-anxiety effect); type: in vivo; conditions: Mus musculus, po, 0.5 h, male Std-ddY mice, 30 minutes before test, Dunnett test 5%, read-out: Anti-anxiety effect MED (minimum effective dose)
Excerpt: Experiment 2: Light and Dark Box Test (Anti-anxiety Effect)
Anti-anxiety effect of test compounds was examined in a box with light and dark compartments according to the method of Crawley, J. and Goodwin, F. K. [cf., Pharmacol. Biochem. Behav., 13, 167-170 (1980)] with slight modification.
Light and dark box test is a useful, simple and handy method for behaviorally and pharmacologically examining anti-anxiety effect of the drugs, by utilizing the habit of rodents such as mice and rats, etc. which prefer to stay in a dark place, and regarding as positive drug effect the increase of the relative stay of the animals in the light compartment which is an uncomfortable place for the animals. A number of drugs such as cholecystokinin B type receptor antagonists and benzodiazepine drugs, show positive effect in this test.
Light and dark box test was carried out using the test box device (35×17×15 cm) which comprises: a light compartment (20×17×15 cm) consisting of transparent acrylic plates and highly illuminated by an incandescent lamp (1,700 lux); a dark compartment (15×17×15 cm) being made of black acrylic plates connected to the light compartment; and at the boundary of compartments, an opening (4.4×5.0 cm) in which mice can go through freely between two compartments.
Male mice of Std-ddY strain weighing 25-30 g were used in a group of 10. Each trial was started by placing a mouse in the center of the light compartment 30 minutes after oral administration of a test compound, and the time spent by the mouse in the light compartment during a 5 minute observation period was measured, and the rate of the stay of mice in the light compartment to the whole time spent in the experiment was calculated (rate of light compartment stay, %).
The anti-anxiety effect of the test compound was represented by the minimum effective dose (MED) at which the increasing rate of the relative stay in the light compartment was regarded as statistically significant (Dunnett test, significance level: 5%). 4.

SMILES | IC50 (BZω3 receptor) [nM] | melting point [°C] | minimal effective dose [1] [µg/kg]
CCCN(CCC)C(=O)Cn1c(=O)n(CC)c2cnc(-c3ccc(Cl)cc3)nc21 [Example 116] | 2.1 | 158 to 159 | 10
CCN(Cc1ccccc1)C(=O)Cn1c(=O)n(CC)c2cnc(-c3ccc(Cl)cc3)nc21 [Example 151] | 2.3 | 157 to 158 | 
CCN(Cc1ccccc1)C(=O)Cn1c(=O)[nH]c2cnc(-c3ccc(OC)cc3)nc21 [Example 94] | 2.7 | 216 to 218 | 
CN(Cc1ccccc1)C(=O)Cn1c(=O)n(C)c2cnc(-c3ccc(Cl)cc3)nc21 [Example 137, N-benzyl-7,8-dihydro-N-methyl-7-methyl-8-oxo-2-(4-chlorophenyl)-9H-purin-9-acetamide] | 1.3 | 241 to 242 | 1 to 3
CCN(Cc1cccc(F)c1)C(=O)Cn1c(=O)n(C)c2nc(-c3ccccc3)ncc21 [Example 75] | 1.3 | 144 to 145 | 
CN(C(=O)Cn1c(=O)n(C)c2nc(-c3ccc(Cl)cc3)ncc21)c1ccccc1 [Example 4] | 1.6 | 188 to 190 | 
CCn1c(=O)n(CC(=O)N(C)c2ccccc2)c2nc(-c3cccnc3)ncc21 [Example 172] | 3.5 | 199 to 200 | 
CN(C(=O)Cn1c(=O)n(C)c2nc(-c3ccc(F)cc3)ncc21)c1ccccc1 [Example 5, 8,9-dihydro-2-(4-fluorophenyl)-9-methyl-N-methyl-8-oxo-N-phenyl-7H-purin-7-acetamide] | 1.3 | 169 to 170 | 1 to 3
CCCN(C(=O)Cn1c(=O)n(CC)c2cnc(-c3ccccc3)nc21)c1ccccc1 [Example 170] | 1.8 | 151 to 152 | 
COc1ccc(N(C)C(=O)Cn2c(=O)[nH]c3cnc(-c4ccccc4)nc32)cc1 [Example 101] | 1.3 | 238 to 240 | 
CCN(C(=O)Cn1c(=O)n(C)c2nc(-c3ccc(F)cc3)ncc21)c1ccccc1 [Example 12, N-ethyl-8,9-dihydro-2-(4-fluorophenyl)-9-methyl-8-oxo-N-phenyl-7H-purin-7-acetamide] | 1.5 | 211 to 212 | 10
CCCN(CCC)C(=O)Cn1c(=O)n(C)c2nc(-c3ccc(F)cc3)ncc21 [Example 29] | 4.5 | 154 to 155 | 
COc1ccc(CN(C)C(=O)Cn2c(=O)n(C)c3nc(-c4ccccc4)ncc32)cc1 [Example 73] | 1.7 | 174 to 176 | 
CCCN(CCC)C(=O)Cn1c(=O)[nH]c2cnc(-c3ccc([N+](=O)[O-])cc3)nc21 [Example 83] | 1.3 | 256 to 258 | 
COc1ccc(-c2ncc3c(n2)n(C)c(=O)n3CC(=O)N(C)c2ccccc2)cc1 [Example 6] | 2 | 176 to 178 | 
CN(C(=O)Cn1c(=O)n(C)c2nc(-c3cccnc3)ncc21)c1ccccc1 [Example 37] | 2.8 | 209 to 211 | 
CCN(C(=O)Cn1c(=O)n(C)c2nc(-c3ccsc3)ncc21)c1ccccc1 [Example 40] | 1.6 | 226 to 228 | 

Stronger by IC50 (BZω3 receptor), values ahead:

IC50 (BZω3 receptor) [nM] | melting point [°C] | SMILES | minimal effective dose [1] [µg/kg]
1.2 | 147 to 148 | CN(C(=O)Cn1c(=O)n(C)c2nc(-c3ccccc3)ncc21)c1ccccc1 [Example 2, 8,9-dihydro-9-methyl-N-methyl-8-oxo-2-phenyl-N-phenyl-7H-purin-7-acetamide] | 1 to 3
0.81 | 134 to 136 | CCN(Cc1ccccc1)C(=O)Cn1c(=O)n(CC)c2cnc(-c3ccccc3)nc21 [Example 150] | 
1.1 | 173 to 175 | CCn1c(=O)n(CC(=O)N(C)c2ccc(Cl)cc2)c2nc(-c3ccccc3)ncc21 [Example 162] | 
1.1 | 205 to 207 | CCn1c(=O)n(CC(=O)N(C)c2cccc(Cl)c2)c2nc(-c3ccccc3)ncc21 [Example 161] | 
0.87 | 147 to 149 | CCn1c(=O)n(CC(=O)N(C)Cc2ccccc2)c2nc(-c3ccccc3)ncc21 [Example 140] | 
1.1 | 172 to 173 | CCN(Cc1ccccc1)C(=O)Cn1c(=O)n(C)c2cnc(-c3ccc(Cl)cc3)nc21 [Example 147, N-benzyl-N-ethyl-7,8-dihydro-7-methyl-8-oxo-2-(4-chlorophenyl)-9H-purin-9-acetamide] | 1 to 3
0.99 | 166 to 167 | CCN(Cc1ccc(F)cc1)C(=O)Cn1c(=O)n(C)c2nc(-c3ccccc3)ncc21 [Example 74] | 
1.2 | 180 to 181 | CCN(C(=O)Cn1c(=O)n(C)c2cnc(-c3ccccc3)nc21)c1ccccc1 [Example 166] | 
0.43 | 198 to 199 | CN(Cc1ccccc1F)C(=O)Cn1c(=O)n(C)c2nc(-c3ccccc3)ncc21 [Example 71] | 
0.8 | 237 to 238 | CCN(C(=O)Cn1c(=O)[nH]c2cnc(-c3ccccc3)nc21)c1ccccc1 [Example 103] | 
0.73 | 172 to 174 | COc1ccc(N(C)C(=O)Cn2c(=O)n(C)c3cnc(-c4ccccc4)nc32)cc1 [Example 163] | 100
0.67 | 202 to 203 | CN(C(=O)Cn1c(=O)n(C)c2cnc(-c3ccccc3)nc21)c1ccccc1 [Example 156] | 
0.79 | 170 to 171 | CN(Cc1ccccc1)C(=O)Cn1c(=O)n(C)c2nc(-c3ccc(F)cc3)ncc21 [Example 50] | 100
1.2 | 205 to 206 | COc1ccc(-c2ncc3c(n2)n(C)c(=O)n3CC(=O)N(C)Cc2ccccc2)cc1 [Example 51] | 
0.66 | 169 to 170 | CN(Cc1ccccc1)C(=O)Cn1c(=O)n(C)c2cnc(-c3ccccc3)nc21 [Example 136, N-benzyl-7,8-dihydro-N-methyl-7-methyl-8-oxo-2-phenyl-9H-purin-9-acetamide] | 

Reference: patent US6372740B1, “2-aryl-8-oxodihydropurine derivative, process for the producing the same, medicinal compositions containing the same, and intermediates thereof” (Dainippon Pharmaceutical Co., Ltd., priority 1997, dated 2002)
